One experiment deals with human PDE-6C (Homo sapiens, UniProt P51160). Put plainly: Human PDE-6C inhibition assay (fluorescence polarization, FAM-cGMP). Conditions: read-out: IC50 (μM) PDE6C. Type of experiment: biochemical.
For experiment [1], the system named is intraocular pressure (IOP) of ocular normotensive rabbits. Briefly: IOP lowering effect in ocular normotensive rabbits (Example 8; Example 9 Phase 1). Type of experiment: in vivo, New Zealand White Rabbits (Oryctolagus cuniculus). Conditions: for OD IOP Mean: 50 μL/eye once, treated right eye, Day 1. The source says: This example illustrates the procedures and results of the intraocular pressure (IOP) lowering effect of compound 18 as compared to Latanoprostene bunod and latanoprost at different concentrations in ocular normotensive rabbits.
Forty (40) male New Zealand white rabbits were divided into 4 groups with 10 animals per group. Animals were then randomly assigned to groups based on body weight.
Latanoprostene bunod ophthalmic solution (LBN, 0.024%) and latanoprost eye drops (0.005%) were used as positive controls and dosed with the same volumes into the right eyes of the tested animals in groups 1 and 2 once.
Compound 18 was instilled into the right eyes of the tested animals in groups 3 (10 mg/mL) and 4 (20 mg/mL) at 50 μL per eye once.
All left eyes of the tested animals in each group were dosed with vehicle solution at 50 μL per eye.
The intraocular pressures (IOPs) were measured once at pre-dose and then once at 1, 2, 4, 6, 8, and 10 hours post dose for each group of animals. FIGS. 1 to 4 show the results from the IOP lowering studies for all four tested groups.
Phase 1: To confirm the IOP lowering effect of test article at different concentrations in ocular normotensive rabbits. Compound 18 was instilled into right eyes of animals in groups 3 and 4, 50 μL/eye, once. 0.024% latanoprostene bunod ophthalmic solution (LBN) and 0.005% latanoprost eye drops were served as positive control and be dosed with same volume into right eyes of groups 1 and 2 animals once. All left eyes of animals in each group were dosed with vehicle once, 50 μL/eye. IOPs was measured once at pre-dose and once at 1, 2, 4, 6, 8, 10 hours post dose. […]
Delivery Method: Drawed 50 μL of the articles with a pipette, pulled out the lower eyelid of the animal, dropped the article into the conjunctiva sac, and gently closed the upper and lower eyelids for a few times.
Species/Strain: New Zealand White Rabbits (Oryctolagus cuniculus). The New Zealand White Rabbit was used in this study. This is commonly used specie for non-clinical studies of ophthalmic formulations, for which there is a large historical database, and the relative large cornea size is suitable for topical operations.
Restrained the animal, made the testing eye perpendicular to the probe of the TonoVet tonometer, measured the IOP for at least three times until the values are stable. The mean of the last three stable values were calculated as the final IOP value.
IOP Measurement in Ocular Normotensive Rabbits: IOP was measured at pre-dose and once at 1, 2, 4, 6, 8, 10 hours post dose in study phase 1.

Sequence of human PDE-6C (P51160 whole entry): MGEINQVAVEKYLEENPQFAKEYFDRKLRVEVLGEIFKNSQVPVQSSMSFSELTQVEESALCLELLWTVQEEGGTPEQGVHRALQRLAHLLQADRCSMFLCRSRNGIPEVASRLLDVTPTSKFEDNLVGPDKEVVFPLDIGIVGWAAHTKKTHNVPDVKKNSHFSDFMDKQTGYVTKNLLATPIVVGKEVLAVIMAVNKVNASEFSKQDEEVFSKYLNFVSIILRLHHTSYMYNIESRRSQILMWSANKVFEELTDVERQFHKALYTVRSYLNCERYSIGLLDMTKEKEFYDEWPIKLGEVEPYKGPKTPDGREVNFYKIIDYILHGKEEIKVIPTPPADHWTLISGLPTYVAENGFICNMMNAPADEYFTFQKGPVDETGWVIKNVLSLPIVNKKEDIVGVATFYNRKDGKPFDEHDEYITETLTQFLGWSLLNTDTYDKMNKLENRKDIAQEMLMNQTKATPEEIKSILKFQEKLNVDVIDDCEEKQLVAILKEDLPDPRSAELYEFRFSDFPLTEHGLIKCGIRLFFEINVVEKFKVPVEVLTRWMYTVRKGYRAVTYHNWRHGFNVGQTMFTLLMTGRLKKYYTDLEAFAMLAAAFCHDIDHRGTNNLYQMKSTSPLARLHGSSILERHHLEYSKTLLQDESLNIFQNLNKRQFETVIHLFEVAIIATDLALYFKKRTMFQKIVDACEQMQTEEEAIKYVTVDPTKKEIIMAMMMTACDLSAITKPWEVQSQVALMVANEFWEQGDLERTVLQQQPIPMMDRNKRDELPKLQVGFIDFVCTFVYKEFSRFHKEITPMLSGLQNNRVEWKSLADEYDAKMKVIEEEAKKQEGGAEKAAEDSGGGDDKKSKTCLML

For orientation: IC50 means the midpoint of a concentration-inhibition curve. `CCCc1nn(C)c2c(=O)[nH]c(-c3cc(S(=O)(=O)N4CC(CCCO)C4)ccc3OCC)nc12` [Compound 4, 5-(2-ethoxy-5-((3-(3-hydroxypropyl)azetidin-1-yl)sulfonyl)phenyl)-1-methyl-3-propyl-1,6-dihydro-7H-pyrazolo[4,3-d]pyrimidin-7-one]: on human PDE-6C, the IC50 is < 0.01 µM.

`CCCc1nn(C)c2c(=O)[nH]c(-c3cc(S(=O)(=O)N4CC(CCCO[N+](=O)[O-])C4)ccc3OCC)nc12` [Compound 18, 3-(1-((4-ethoxy-3-(1-methyl-7-oxo-3-propyl-6,7-dihydro-1H-pyrazolo[4,3-d]pyrimidin-5-yl)phenyl)sulfonyl)azetidin-3-yl)propyl nitrate]: the IOP after administration result in experiment [1] (Example 8, both 10 mg/mL and 20 mg/mL doses) was “significantly lower the IOP”. Besides, the “IOP compared with the vehicle treated eyes” value in experiment [1] (Phase 1, 10 mg/mL, at 1, 2, 4 h post dosing, p≤0.05) is listed as “significant decreased IOPs”; in experiment [1] (Phase 1, 20 mg/mL, at 1, 2, 4, 8, 10 h post dosing (8, 10 h, p≤0.05; 1, 4 h, p≤0.01; 2 h, p≤0.001)) it was “significant decreased IOPs”. The “OD IOP Mean” value in experiment [1] (Phase 1 Group 3, 10 mg/mL (1%), 1 h post dose) worked out at 12.50; in experiment [1] (Phase 1 Group 3, 10 mg/mL (1%), 2 h post dose), 13.30; in experiment [1] (Phase 1 Group 3, 10 mg/mL (1%), 4 h post dose), 14.17; in experiment [1] (Phase 1 Group 3, 10 mg/mL (1%), 6 h post dose), 15.27; in experiment [1] (Phase 1 Group 3, 10 mg/mL (1%), 8 h post dose), 15.57; in experiment [1] (Phase 1 Group 3, 10 mg/mL (1%), 10 h post dose), 16.53. The “OD IOP Mean” value was found to be 11.47 in experiment [1] (Phase 1 Group 4, 20 mg/mL (2%), 1 h post dose); 11.93 in experiment [1] (Phase 1 Group 4, 20 mg/mL (2%), 2 h post dose); 13.70 in experiment [1] (Phase 1 Group 4, 20 mg/mL (2%), 4 h post dose); 14.33 in experiment [1] (Phase 1 Group 4, 20 mg/mL (2%), 6 h post dose); 15.20 in experiment [1] (Phase 1 Group 4, 20 mg/mL (2%), 8 h post dose); 15.40 in experiment [1] (Phase 1 Group 4, 20 mg/mL (2%), 10 h post dose).

Source of the values: patent US20220153746A1, “NITROGEN OXIDE-DONATING PDE-5 AND/OR PDE-6 INHIBITOR COMPOUNDS, AND USES THEREOF” (ILDONG PHARMACEUTICAL CO., LTD., priority 2020, published 2022).
